{"source": "ChEMBL document CHEMBL4622919", "about": "“Hypersonins A-D, Polycyclic Polyprenylated Acylphloroglucinols with a 1,2-seco-Homoadamantane Architecture from Hypericum wilsonii” (J Nat Prod, 2020)", "tested_on": "Splenocyte", "experiment": "Immunosuppressive activity in BALB/c mouse splenocytes assessed as reduction in anti-mouse CD3/CD28-induced cell proliferation after 72 hrs by flow cytometric analysis", "type": "functional, cell-based", "note": "pIC50: −log10 of the molar value.", "data": [{"smiles": "COC(=O)[C@]12C[C@H](C(C)(C)O)C(C)(C)[C@H]1C[C@H]1C[C@@](CC=C(C)C)(C2=O)C(O)=C(C(=O)C(C)C)C1(C)C", "values": [{"measurement": "pIC50", "value": 5.08}]}]}
